Data on one molecule can be found in patent US20190041383A1, “METHOD FOR PREPARING SENESCENT MELANOCYTES, CELLS PREPARED BY METHOD, AND METHOD FOR SCREENING FOR SENESCENCE-ALLEVIATING MATERIAL BY USING CELLS” (AMOREPACIFIC CORPORATION, priority 2015, published 2019).

Type in all cases: cell-based, human
Experiment [1] concerns melanocytes irradiated with UVB at 20 mJ/cm^2 two times (senescent melanocytes). In words: β-galactosidase activity in senescent melanocytes after treatment with whitening material. The following applies: 30 μM, medium changed every 3 days (4 times) from 48 h after UVB, read after two weeks, vs vehicle (DMSO) control; p<0.05 (FIG. 5a). As for the experimental part:
Human primary melanocytes (Life Technologies, CA, USA) were cultured in a 5% CO2 incubator at room temperature by using M-254 medium (Gibco BRL, NY, USA) supplemented with human melanocyte growth supplement (HMGS) (Gibco BRL, NY, USA), placed on a 100 mm culture dish so that the number of cells was 2×10^5, allowed to attach to the dish wall for the night, and irradiated with UVB at a strength of 11 mJ/cm^2, 20 mJ/cm^2, and 30 mJ/cm^2 two times at an interval of 24 hours.
After UVB irradiation under the conditions of Example 1, β-galactosidase activity, which is a representative senescence index of cell, has been measured and it has been confirmed that the activity increased in proportion to the strength of UVB irradiated (FIG. 3a).
The cells determined in the most proper senescent state through the above-described Examples, namely, the cells prepared by irradiating the melanocytes with UVB at a strength of 20 mJ/cm^2 two times at an interval of 24 hours were cultured from the 48th hour after the UV ray irradiation in a medium containing Material A (melasolv, 30 μM) of a representative whitening material while changing the medium at an interval of 3 days (4 times in total). After two weeks, the β-galactosidase activity and the melanin content were compared to those of a control group (vehicle (DMSO) treated) (FIG. 5). […]

Experiment [2] has as its system melanocytes irradiated with UVB at 20 mJ/cm^2 two times (senescent pigmentation model). In words: melanin content in senescent melanocytes after treatment with whitening material. Particulars: 30 μM, medium changed every 3 days (4 times) from 48 h after UVB, read after two weeks, vs vehicle (DMSO) control; p<0.05 (FIG. 5b). As for the experimental part:
Human primary melanocytes (Life Technologies, CA, USA) were cultured in a 5% CO2 incubator at room temperature by using M-254 medium (Gibco BRL, NY, USA) supplemented with human melanocyte growth supplement (HMGS) (Gibco BRL, NY, USA), placed on a 100 mm culture dish so that the number of cells was 2×10^5, allowed to attach to the dish wall for the night, and irradiated with UVB at a strength of 11 mJ/cm^2, 20 mJ/cm^2, and 30 mJ/cm^2 two times at an interval of 24 hours. The melanocytes were irradiated with UVB at a strength of 11 mJ/cm^2, 20 mJ/cm^2, and 30 mJ/cm^2, respectively, two times, cultured for 2 weeks, detached from the culture dish and counted, and the same number of cells were collected in a microtube, disrupted by adding RIPA assay buffer (Millipore, 20-188) thereto, and subjected to the centrifugation at 13,500 rpm for 30 minutes to obtain a precipitate. The precipitate was dissolved in a 1N sodium hydroxide (NaOH) solution, and the colors were compared to one another (FIG. 4a), and the absorbance was measured at 450 nm to compare the content of melanin (FIG. 4b). […]

Another experiment deals with p16 and p21. In words: p16 and p21 mRNA expression (Q-PCR) in senescent melanocytes after treatment with whitening material. Particulars: treated for 2 weeks from 48 h after final UVB irradiation, four times at an interval of 3 days; p<0.05 / p<0.01 (FIG. 6). As to the method:
Human primary melanocytes (Life Technologies, CA, USA) were cultured in a 5% CO2 incubator at room temperature by using M-254 medium (Gibco BRL, NY, USA) supplemented with human melanocyte growth supplement (HMGS) (Gibco BRL, NY, USA), placed on a 100 mm culture dish so that the number of cells was 2×10^5, allowed to attach to the dish wall for the night, and irradiated with UVB at a strength of 11 mJ/cm^2, 20 mJ/cm^2, and 30 mJ/cm^2 two times at an interval of 24 hours. cDNA was prepared by obtaining RNA from cells 2 weeks after being irradiated with UVB at a strength of 20 mJ/cm^2 two times at an interval of 24 hours, and a change in mRNA level was measured by Q-PCR (Applied biosystems, 7500 Fast) by using p16 and p21 specific primers. As the Q-PCR experiment, a cycle at 95° C. for 15 seconds and at 60° C. for 60 seconds was repeatedly conducted 40 times in total, and the relative value of an increase in gene expression as compared to that of a control group was measured.

Turning to `COc1cc(/C=C/C(=O)Oc2cc(C)ccc2C(C)C)cc(OC)c1OC` [Material A, melasolv], in experiment [1], the β-galactosidase activity entry is recorded as “decreases”. In experiment [2], the melanin content entry is reported as “significantly decreases to the level of that of the control group”. Moreover, the “increased gene expression (p16 and p21)” value in the experiment with p16 and p21 is on record as “significantly inhibited”.
